Reference: US6610502B1, “Compound 2-amino-3-[2-(α-mannopyranosyl)indol-3-yl]propionic acid, process for preparing the same, and method for inspecting function of living body with the novel compound” (Kyowa Medex Co., Ltd., priority 1997, dated 2003)

Experiment: Assay of excreted amount in urine: the present compound by enzyme immunoassay (Example 9)
Format: in vivo, human
Details: healthy persons
Protocol: Enzyme immunoassay was performed using the antibody prepared in Example 6. First, 50 μl of 2-amino-3-[2-(α-D-mannopyranosyl)indole-3-yl]propionic acid-BSA conjugate solution (20 μg/ml 0.1M carbonate buffer, pH9.5) was dispensed into a 96-well microtiter plate (NUNC. Corp.) and left to stand at 4° C. overnight. After washing the plate three times with PBS, 250 μl of 1% BSA/PBS solution was dispensed into the plate and left to stand at room temperature for 1 hour. Then, the plate was washed three times with PBS to be used as a reaction plate. Next, 50 μl of a test sample diluted with 0.1M phosphate buffer (pH 7.4) supplemented with varied concentrations of 2-amino-3-[2-(α-D-mannopyranosyl)indole-3-yl]propionic acid/0.1%BSA or 0.1M phosphate buffer supplemented with 0.1% BSA (pH7.4) was dispensed into the reaction plate into which 50 μl of the monoclonal antibody prepared in Example 6 (10 ng/ml, 0.1M phosphate buffer solution supplemented with 0.1% BSA, pH7.4) was added while stirring. The mixture was allowed to react at room temperature for 3 hours. Then, after the reaction was completed, the plate was washed five times with PBS containing 0.05% Tween 20, and then 50 μl of POD labeled-anti-mouse immunoglobulins-rabbit IgG (DAKO) was added to the plate for reaction at room temperature for 1 hour. After the reaction, the plate was washed five times with PBS containing 0.05% Tween 20, added with 50 μl of MCDP/50 mM citrate buffer solution (pH5.0), and the mixture was allowed to react at room temperature for 30 minutes. Finally, 50 μl of a reaction stopper (ethyl diethyldithiocarbamate) was added to the plate, and absorbance was then determined at 660 nm by a microplate reader. The calibration curve is shown in FIG. 5 in which the concentration of 2-amino-3-[2-(α-D-mannopyranosyl)indole-3-yl]propionic acid was indicated as a concentration of single compound.
Healthy persons (male and female, from newborn to 90 year-old) were assayed for levels of 2-amino-3-[2-(α-mannopyranosyl)indole-3-yl]propionic acid in their urine as described in Example 7, to evaluate the usefulness of the method of the present invention for measurement of renal functions. Urine samples stored for 24 hours were pooled, their volumes were determined, and then partially stored at −80° C. until use. Upon use, the frozen urine samples were thawed and kept warm at 37° C. Subsequently, after sufficient stirring and mixing, the samples were centrifuged at 3000 rpm for 10 minutes to remove impurities. The resultant supernatants were used as samples. As a comparative example, creatinine levels in the same test samples were assayed.

- excreted amount in urine, average (female, age 0-10): 4111 µg/day
- excreted amount in urine, average (female, age 0-90): 4507 µg/day
- excreted amount in urine, average (female, age 10-30): 4520 µg/day
- excreted amount in urine, average (female, age 30-50): 4824 µg/day
- excreted amount in urine, average (female, age 50-70): 4412 µg/day
- excreted amount in urine, average (female, age 70-90): 4666 µg/day
- average excretion amount per day (male and female, all ages): 4.5 mg/day
- excreted amount in urine, average (male, age 0-10): 4095 µg/day
- excreted amount in urine, average (male, age 0-90): 4488 µg/day
- excreted amount in urine, average (male, age 10-30): 4581 µg/day
- excreted amount in urine, average (male, age 30-50): 4498 µg/day
- excreted amount in urine, average (male, age 50-70): 4647 µg/day
- excreted amount in urine, average (male, age 70-90): 4622 µg/day
SMILES: NC(Cc1c([C@H]2O[C@H](CO)[C@@H](O)[C@H](O)[C@@H]2O)[nH]c2ccccc12)C(=O)O (stereo partly drawn) [the present compound, 2-amino-3-[2-(α-mannopyranosyl)indole-3-yl]propionic acid]
